Data taken from patent publication US8741836B2, “Polypeptides” (Novo Nordisk A/S, priority 2011, dated 2014).
Starred links: 1 amine or outer side, 2 acyl side, 3 side chain; linkers in the order of their positions; H or OH if unused. Positions of bridges follow the written chain, without caps; N, C: chain ends. Residues, ends and D or L forms follow the SMILES beside them. *: point of attachment. C20 diacid = O=C(O)CCCCCCCCCCCCCCCCCCC(=O)*; γGlu = O=C(O)[C@H](CCC(=O)[*:2])N[*:1]

Assay: Assay (III) ThT fibrillation assay for physical stability
Format: physicochemical
Settings: pH 4.0
From the text: Assay (III)—ThT Fibrillation Assays for the Assessment of Physical Stability of Protein formulations Low physical stability of a polypeptide may lead to amyloid fibril formation, which is observed as well-ordered, thread-like macromolecular structures in the sample eventually resulting in gel formation. This has traditionally been measured by visual inspection of the sample. However, that kind of measurement is very subjective and depending on the observer. Therefore, the application of a small molecule indicator probe is much more advantageous. Thioflavin T (ThT) is such a probe and has a distinct fluorescence signature when binding to fibrils [Naiki et al. (1989) Anal. Biochem. 177, 244-249; LeVine (1999) Methods. Enzymol. […], 274-284]. The time course for fibril formation can be described by a sigmoidal curve with the following expression [Nielsen et al. (2001) Biochemistry 40, 6036-6046]: [formula] Here, F is the ThT fluorescence at the time t. The constant t0 is the time needed to reach 50% of maximum fluorescence. […] Few of those intermediates nucleate to form a template onto which further intermediates may assembly and the fibrillation proceeds. The lag-time corresponds to the interval in which the critical mass of nucleus is built up and the apparent rate constant is the rate with which the fibril itself is formed. Sample Preparation Samples were prepared freshly before each assay. Each sample composition is described in each example. The pH of the sample was adjusted to the desired value using appropriate amounts of concentrated NaOH and HClO4 or HCl. Thioflavin T was added to the samples from a stock solution in H2O to a final concentration of 1 μM. Sample aliquots of 200 μl were placed in a 96 well microtiter plate (Packard OptiPlate™-96, white polystyrene). Usually, four or eight replica of each sample (corresponding to one test condition) were placed in one column of wells. The plate was sealed with Scotch Pad (Qiagen). Incubation and Fluorescence Measurement Incubation at given temperature, shaking and measurement of the ThT fluorescence emission were done in a Fluoroskan Ascent FL fluorescence platereader or Varioskan platereader (Thermo Labsystems). The temperature was adjusted to 37° C. The orbital shaking was adjusted to 960 rpm with an amplitude of 1 mm in all the presented data. Fluorescence measurement was done using excitation through a 444 nm filter and measurement of emission through a 485 nm filter. Each run was initiated by incubating the plate at the assay temperature for 10 min. The plate was measured every 20 minutes for a desired period of time. Between each measurement, the plate was shaken and heated as described. Data Handling The measurement points were saved in Microsoft Excel format for further processing and curve drawing and fitting was performed using GraphPad Prism. The background emission from ThT in the absence of fibrils was negligible. The data points are typically a mean of four or eight samples and shown with standard deviation error bars. Only data obtained in the same experiment (i.e. samples on the same plate) are presented in the same graph ensuring a relative measure of fibrillation between experiments. The data set may be fitted to Eq. (1). However, since full sigmodial curves in this case are not always achieved during the measurement time, the degree of fibrillation is expressed as ThT fluorescence tabulated as the mean of the samples and shown with the standard deviation at various time points. Measurement of Initial and Final Concentrations The polypeptide concentration in each of the tested formulations were measured both before application in the ThT fibrillation assay (“Initial”) and after completion of the ThT fibrillation (“After ThT assay”). Concentrations were determined by reverse HPLC methods using a pramlintide standard as a reference. Before measurement after completion 150 μl was collected from each of the replica and transferred to an Eppendorf tube. […]

SMILES	ThT pH 4.0 lag time (physical stability in fibrillogenesis assay) [h]
CC[C@H](C)[C@H](NC(=O)[C@@H]1CCCN1C(=O)CNC(=O)[C@H](Cc1ccccc1)NC(=O)[C@H](CO)NC(=O)[C@H](CO)NC(=O)[C@H](CO)NC(=O)[C@H](CO)NC(=O)[C@H](CCCNC(=N)N)NC(=O)[C@H](Cc1cnc[nH]1)NC(=O)[C@H](CC(C)C)NC(=O)[C@H](Cc1ccccc1)NC(=O)[C@H](CCC(=O)O)NC(=O)[C@H](C)NC(=O)[C@H](CC(C)C)NC(=O)[C@H](CCCNC(=N)N)NC(=O)[C@H](CCC(N)=O)NC(=O)[C@@H](NC(=O)[C@H](C)NC(=O)[C@@H]1CSSC[C@H](NC(=O)[C@H](Cc2cnc[nH]2)NC(=O)CC[C@H](NC(=O)CCCCCCCCCCCCCCCCCCC(=O)O)C(=O)O)C(=O)N[C@@H](CC(N)=O)C(=O)N[C@@H]([C@@H](C)O)C(=O)N[C@@H](C)C(=O)N[C@@H]([C@@H](C)O)C(=O)N1)[C@@H](C)O)C(=O)N[C@@H](CC(C)C)C(=O)N1CCC[C@H]1C(=O)N1CCC[C@H]1C(=O)N[C@H](C(=O)N[C@@H](CC(=O)O)C(=O)N[C@H](C(=O)NCC(=O)N[C@@H](CO)C(=O)N[C@@H](CC(=O)O)C(=O)N[C@H](C(=O)N[C@@H](Cc1ccc(O)cc1)C(N)=O)[C@@H](C)O)C(C)C)[C@@H](C)O [Example 9, N-alpha-[(S)-4-Carboxy-4-(19-carboxynonadecanoylamino)butyryl]-[His1,Glu14,His17,Arg18,Ser21,Ser22,Asp31,Asp35]-pramlintide] ({C20 diacid-γGlu}-HCNTATCATQRLAEFLHRSSSSFGPILPPTDVGSDTY-NH2; disulfide 2-7)	>45
CC[C@H](C)[C@H](NC(=O)[C@@H]1CCCN1C(=O)CNC(=O)[C@H](Cc1ccccc1)NC(=O)[C@H](CC(N)=O)NC(=O)[C@H](CCC(N)=O)NC(=O)[C@H](CO)NC(=O)[C@H](CO)NC(=O)[C@H](Cc1c[nH]cn1)NC(=O)[C@H](CCCNC(=N)N)NC(=O)[C@H](CC(C)C)NC(=O)[C@H](Cc1ccccc1)NC(=O)[C@H](CCC(=O)O)NC(=O)[C@H](C)NC(=O)[C@H](CC(C)C)NC(=O)[C@H](CCCNC(=N)N)NC(=O)[C@H](CCC(N)=O)NC(=O)[C@@H](NC(=O)[C@H](C)NC(=O)[C@@H]1CSSC[C@H](NC(=O)[C@H](CCC(=O)O)NC(=O)[C@H](CCCNC(=N)N)NC(=O)[C@H](CCC(=O)O)NC(=O)CC[C@H](NC(=O)CCCCCCCCCCCCCCCCCCC(=O)O)C(=O)O)C(=O)N[C@@H](CC(N)=O)C(=O)N[C@@H]([C@@H](C)O)C(=O)N[C@@H](C)C(=O)N[C@@H]([C@@H](C)O)C(=O)N1)[C@@H](C)O)C(=O)N[C@@H](CC(C)C)C(=O)N1CCC[C@H]1C(=O)N1CCC[C@H]1C(=O)N[C@H](C(=O)N[C@@H](CC(N)=O)C(=O)N[C@H](C(=O)NCC(=O)N[C@@H](CO)C(=O)N[C@@H](CCC(N)=O)C(=O)N[C@H](C(=O)N1CCC[C@H]1C(N)=O)[C@@H](C)O)C(C)C)[C@@H](C)O [Example 162, N-alpha-[(S)-4-Carboxy-4-(19-carboxynonadecanoylamino)butyryl]-Glu-Arg-[Glu1,Glu14,Arg17,Gln21,Gln35,Pro37]-pramlintide] ({C20 diacid-γGlu}-ERECNTATCATQRLAEFLRHSSQNFGPILPPTNVGSQTP-NH2; disulfide 4-9 (inferred); C-terminus assumed)	>45

Same assay, conditions: pH 4.0, ThT fibrillation assay

SMILES	ThT pH 4.0 lag time [h]
CC[C@H](C)[C@H](NC(=O)[C@@H]1CCCN1C(=O)CNC(=O)[C@H](Cc1ccccc1)NC(=O)[C@H](CC(N)=O)NC(=O)[C@H](CCC(N)=O)NC(=O)[C@H](CO)NC(=O)[C@H](CO)NC(=O)[C@H](Cc1c[nH]cn1)NC(=O)[C@H](CCCNC(=N)N)NC(=O)[C@H](CC(C)C)NC(=O)[C@H](Cc1ccccc1)NC(=O)[C@H](CCC(=O)O)NC(=O)[C@H](C)NC(=O)[C@H](CC(C)C)NC(=O)[C@H](CCCNC(=N)N)NC(=O)[C@H](CCC(N)=O)NC(=O)[C@@H](NC(=O)[C@H](C)NC(=O)[C@@H]1CSSC[C@H](NC(=O)[C@H](CCC(=O)O)NC(=O)[C@H](CCCNC(=N)N)NC(=O)[C@H](CCC(=O)O)NC(=O)CC[C@H](NC(=O)CCCCCCCCCCCCCCCCCCC(=O)O)C(=O)O)C(=O)N[C@@H](CC(N)=O)C(=O)N[C@@H]([C@@H](C)O)C(=O)N[C@@H](C)C(=O)N[C@@H]([C@@H](C)O)C(=O)N1)[C@@H](C)O)C(=O)N[C@@H](CC(C)C)C(=O)N1CCC[C@H]1C(=O)N1CCC[C@H]1C(=O)N[C@H](C(=O)N[C@@H](CC(N)=O)C(=O)N[C@H](C(=O)NCC(=O)N[C@@H](CO)C(=O)N[C@@H](CCC(N)=O)C(=O)N[C@H](C(=O)N1CCC[C@H]1C(N)=O)[C@@H](C)O)C(C)C)[C@@H](C)O [Example 162, N-alpha-[(S)-4-Carboxy-4-(19-carboxynonadecanoylamino)butyryl]-Glu-Arg-[Glu1,Glu14,Arg17,Gln21,Gln35,Pro37]-pramlintide] ({C20 diacid-γGlu}-ERECNTATCATQRLAEFLRHSSQNFGPILPPTNVGSQTP-NH2; disulfide 4-9 (inferred); C-terminus assumed)	>45
CC[C@H](C)[C@H](NC(=O)[C@@H]1CCCN1C(=O)CNC(=O)[C@H](Cc1ccccc1)NC(=O)[C@H](CC(N)=O)NC(=O)[C@H](CC(N)=O)NC(=O)[C@H](CO)NC(=O)[C@H](CO)NC(=O)[C@H](Cc1c[nH]cn1)NC(=O)[C@H](Cc1c[nH]cn1)NC(=O)[C@H](CC(C)C)NC(=O)[C@H](Cc1ccccc1)NC(=O)[C@H](CCC(=O)O)NC(=O)[C@H](C)NC(=O)[C@H](CC(C)C)NC(=O)[C@H](CCCNC(=N)N)NC(=O)[C@H](CCC(N)=O)NC(=O)[C@@H](NC(=O)[C@H](C)NC(=O)[C@@H]1CSSC[C@H](NC(=O)[C@H](Cc2c[nH]cn2)NC(=O)[C@H](Cc2c[nH]cn2)NC(=O)[C@H](Cc2c[nH]cn2)NC(=O)CC[C@H](NC(=O)CCCCCCCCCCCCCCCCCCC(=O)O)C(=O)O)C(=O)N[C@@H](CC(N)=O)C(=O)N[C@@H]([C@@H](C)O)C(=O)N[C@@H](C)C(=O)N[C@@H]([C@@H](C)O)C(=O)N1)[C@@H](C)O)C(=O)N[C@@H](CC(C)C)C(=O)N1CCC[C@H]1C(=O)N1CCC[C@H]1C(=O)N[C@H](C(=O)N[C@@H](CC(N)=O)C(=O)N[C@H](C(=O)NCC(=O)N[C@@H](CO)C(=O)N[C@@H](Cc1c[nH]cn1)C(=O)N[C@H](C(=O)N[C@@H](Cc1ccc(O)cc1)C(N)=O)[C@@H](C)O)C(C)C)[C@@H](C)O [Example 31, N-alpha-[(S)-4-Carboxy-4-(19-carboxynonadecanoylamino)butyryl]-His-His-[His1,Glu14,His17,His35]-pramlintide] ({C20 diacid-γGlu}-HHHCNTATCATQRLAEFLHHSSNNFGPILPPTNVGSHTY-NH2; disulfide 4-9)	>45
CC[C@H](C)[C@H](NC(=O)[C@@H]1CCCN1C(=O)CNC(=O)[C@H](Cc1ccccc1)NC(=O)[C@H](CC(N)=O)NC(=O)[C@H](CC(N)=O)NC(=O)[C@H](CO)NC(=O)[C@H](CO)NC(=O)[C@H](Cc1c[nH]cn1)NC(=O)[C@H](CCCNC(=N)N)NC(=O)[C@H](CC(C)C)NC(=O)[C@H](Cc1ccccc1)NC(=O)[C@H](CCC(=O)O)NC(=O)[C@H](C)NC(=O)[C@H](CC(C)C)NC(=O)[C@H](CCCNC(=N)N)NC(=O)[C@H](CCC(N)=O)NC(=O)[C@@H](NC(=O)[C@H](C)NC(=O)[C@@H]1CSSC[C@H](NC(=O)[C@H](CCCCN)NC(=O)[C@H](Cc2c[nH]cn2)NC(=O)CC[C@H](NC(=O)CCCCCCCCCCCCCCCCCCC(=O)O)C(=O)O)C(=O)N[C@@H](CC(N)=O)C(=O)N[C@@H]([C@@H](C)O)C(=O)N[C@@H](C)C(=O)N[C@@H]([C@@H](C)O)C(=O)N1)[C@@H](C)O)C(=O)N[C@@H](CC(C)C)C(=O)N1CCC[C@H]1C(=O)N1CCC[C@H]1C(=O)N[C@H](C(=O)N[C@@H](CC(N)=O)C(=O)N[C@H](C(=O)NCC(=O)N[C@@H](CO)C(=O)N[C@@H](Cc1c[nH]cn1)C(=O)N[C@H](C(=O)N[C@@H](Cc1ccc(O)cc1)C(N)=O)[C@@H](C)O)C(C)C)[C@@H](C)O [Example 68, N-alpha-[(S)-4-Carboxy-4-(19-carboxynonadecanoylamino)butyryl]-His-[Glu14,Arg17,His35]-pramlintide] ({C20 diacid-γGlu}-HKCNTATCATQRLAEFLRHSSNNFGPILPPTNVGSHTY-NH2; disulfide 3-8 (inferred); C-terminus assumed)	>45
CC[C@H](C)[C@H](NC(=O)[C@@H]1CCCN1C(=O)CNC(=O)[C@H](Cc1ccccc1)NC(=O)[C@H](CC(N)=O)NC(=O)[C@H](CC(N)=O)NC(=O)[C@H](CO)NC(=O)[C@H](CO)NC(=O)[C@H](Cc1c[nH]cn1)NC(=O)[C@H](Cc1c[nH]cn1)NC(=O)[C@H](CC(C)C)NC(=O)[C@H](Cc1ccccc1)NC(=O)[C@H](CCC(=O)O)NC(=O)[C@H](C)NC(=O)[C@H](CC(C)C)NC(=O)[C@H](CCCNC(=N)N)NC(=O)[C@H](CCC(N)=O)NC(=O)[C@@H](NC(=O)[C@H](C)NC(=O)[C@@H]1CSSC[C@H](NC(=O)[C@H](CCCNC(=N)N)NC(=O)CNC(=O)CC[C@H](NC(=O)CCCCCCCCCCCCCCCCCCC(=O)O)C(=O)O)C(=O)N[C@@H](CC(N)=O)C(=O)N[C@@H]([C@@H](C)O)C(=O)N[C@@H](C)C(=O)N[C@@H]([C@@H](C)O)C(=O)N1)[C@@H](C)O)C(=O)N[C@@H](CC(C)C)C(=O)N1CCC[C@H]1C(=O)N1CCC[C@H]1C(=O)N[C@H](C(=O)N[C@@H](CC(N)=O)C(=O)N[C@H](C(=O)NCC(=O)N[C@@H](CO)C(=O)N[C@@H](Cc1c[nH]cn1)C(=O)N[C@H](C(=O)N[C@@H](Cc1ccc(O)cc1)C(N)=O)[C@@H](C)O)C(C)C)[C@@H](C)O [Example 100, N-alpha-[(S)-4-Carboxy-4-(19-carboxynonadecanoylamino)butyryl]-Gly-[Arg1,Glu14,His17,His35]-pramlintide] ({C20 diacid-γGlu}-GRCNTATCATQRLAEFLHHSSNNFGPILPPTNVGSHTY-NH2; disulfide 3-8 (inferred))	26
